Where “and” joins values, the source holds several entries; their conditions need not be identical. Identical values can stand only once. Inconclusive results and toxic doses are left out.

The test has as its system CD2F1 mice, L1210 leukemia ip, survival T/C. In words: NCI In Vivo Anticancer Drug Screen. Data for tumor model L1210 Leukemia (intraperitoneal) in CD2F1 (CDF1) mice. Particulars: higher = longer survival. Put shortly:
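Implant tumor; dose compound or vehicle; measure endpoint in both groups; report treated divided by control.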

Where [1] appears, read: endpoint: mean survival time, dose: 100.0 mg/kg/injection, schedule: Q04DX003 (ip), vehicle: saline.
Setting [2] is: endpoint: mean survival time, dose: 200.0 mg/kg/injection, schedule: Q04DX003 (ip), vehicle: saline.
Where [3] appears, read: endpoint: mean survival time, dose: 400.0 mg/kg/injection, schedule: Q04DX003 (ip), vehicle: saline.
Setting [4] is: endpoint: mean survival time, dose: 50.0 mg/kg/injection, schedule: Q04DX002 (ip), vehicle: saline.
Setting [5] is: endpoint: mean survival time, dose: 100.0 mg/kg/injection, schedule: Q04DX002 (ip), vehicle: saline.
[6] abbreviates: endpoint: mean survival time, dose: 100.0 mg/kg/injection, schedule: Q04DX002 (ip), vehicle: saline with Tween-80.
Where [7] appears, read: endpoint: mean survival time, dose: 200.0 mg/kg/injection, schedule: Q04DX002 (ip), vehicle: saline with Tween-80.
[8] abbreviates: endpoint: mean survival time, dose: 100.0 mg/kg/injection, schedule: Q04DX003 (ip), vehicle: saline with Tween-80.
[9] abbreviates: endpoint: mean survival time, dose: 200.0 mg/kg/injection, schedule: Q01DX009 (ip), vehicle: saline.
Setting [10] is: endpoint: mean survival time, dose: 200.0 mg/kg/injection, schedule: Q04DX002 (ip), vehicle: saline.
Where [11] appears, read: endpoint: mean survival time, dose: 25.0 mg/kg/injection, schedule: Q01DX009 (ip), vehicle: water.

As for `O=C(Nc1ccc(NC(=O)c2ccccc2)c(Sc2ccccc2)c1Sc1ccccc1)c1ccccc1`, the T/C (endpoint: mean survival time, dose: 100.0 mg/kg/injection, schedule: Q01DX001 (ip), vehicle: saline with Tween-80) was 89 % of control; the T/C (endpoint: mean survival time, dose: 200.0 mg/kg/injection, schedule: Q01DX001 (ip), vehicle: saline with Tween-80) was 89 % of control; the T/C (endpoint: mean survival time, dose: 400.0 mg/kg/injection, schedule: Q01DX001 (ip), vehicle: saline with Tween-80) is 86 % of control.

Regarding `CNC(=O)NC1CCC(C)CC1` (centres undefined), the T/C was 98 % of control under setting [1], 96 % of control under setting [2] and 96 % of control under setting [3].

With `O=C(O)C1C2C=CC(O2)C1CO` (centres undefined), the T/C is, setting by setting: (endpoint: mean survival time, dose: 25.0 mg/kg/injection, schedule: Q04DX002 (ip), vehicle: saline) 103 % of control; under setting [4], 100 % of control; under setting [5], 100 % of control.

For the compound `CC1(C(=O)O)CCCC1C(CCC(=O)O)C(=O)O` (centres undefined), the T/C reads like this: under setting [1], 98 % of control; under setting [2], 96 % of control; under setting [3], 96 % of control.

With `CC(C)NC(=O)C1C2CCC(C2)C1C(=O)NC(C)C` (centres undefined), the T/C under setting [1] is 98 % of control, the T/C under setting [2] was 111 % of control and the T/C under setting [3] was 98 % of control.

For `C[N+](C)(C)C1CCCC1O` (centres undefined), the T/C is 98 % of control (endpoint: mean survival time, dose: 25.0 mg/kg/injection, schedule: Q04DX002 (ip), vehicle: saline with Tween-80); 98 % of control (endpoint: mean survival time, dose: 50.0 mg/kg/injection, schedule: Q04DX002 (ip), vehicle: saline with Tween-80); 95 % of control under setting [6]; 95 % of control under setting [7].

With `CCC12C=CCN3CCC4(c5cc(C6c7[nH]c8ccccc8c7CCN7CCCCC67)c(OC)cc5N(C)C4C(O)(C(=O)OC)C1OC(C)=O)C32` (centres undefined), the T/C (endpoint: mean survival time, dose: 0.06 mg/kg/injection, schedule: Q01DX009 (ip), vehicle: other) was 93 % of control; the T/C (endpoint: mean survival time, dose: 0.13 mg/kg/injection, schedule: Q01DX009 (ip), vehicle: other) is 93 % of control; the T/C (endpoint: mean survival time, dose: 0.25 mg/kg/injection, schedule: Q01DX009 (ip), vehicle: other) was 92 % of control; the T/C (endpoint: mean survival time, dose: 0.5 mg/kg/injection, schedule: Q01DX009 (ip), vehicle: other) was 95 % of control; the T/C (endpoint: mean survival time, dose: 1.0 mg/kg/injection, schedule: Q01DX009 (ip), vehicle: other) was 90 % of control; the T/C (endpoint: mean survival time, dose: 2.0 mg/kg/injection, schedule: Q01DX009 (ip), vehicle: other) was 93 % of control. In addition, the T/C (endpoint: mean survival time, dose: 4.0 mg/kg/injection, schedule: Q01DX009 (ip), vehicle: other) is 93 % of control.

On to `O=C(O)/C(Cl)=C(/Cl)C(Cl)=C(Cl)Cl`, for which the T/C is, setting by setting: (endpoint: mean survival time, dose: 25.0 mg/kg/injection, schedule: Q01DX009 (ip), vehicle: saline with Tween-80) 96 % of control; (endpoint: mean survival time, dose: 25.0 mg/kg/injection, schedule: Q04DX003 (ip), vehicle: saline with Tween-80) 100 % of control; (endpoint: mean survival time, dose: 50.0 mg/kg/injection, schedule: Q01DX009 (ip), vehicle: saline with Tween-80) 95 % of control; (endpoint: mean survival time, dose: 50.0 mg/kg/injection, schedule: Q04DX003 (ip), vehicle: saline with Tween-80) 98 % of control; (endpoint: mean survival time, dose: 100.0 mg/kg/injection, schedule: Q01DX009 (ip), vehicle: saline with Tween-80) 93 % of control; under setting [8], 91 % of control.

As to `C=C1CC2(CCC23COC(=O)C3=C)OC1=O` (centres undefined), the T/C is 107 % of control (endpoint: mean survival time, dose: 0.78 mg/kg/injection, schedule: Q01DX009 (ip), vehicle: other); 100 % of control (endpoint: mean survival time, dose: 0.78 mg/kg/injection, schedule: Q04DX002 (ip), vehicle: other); 100 % of control (endpoint: mean survival time, dose: 0.78 mg/kg/injection, schedule: Q04DX003 (ip), vehicle: other); 102 % of control (endpoint: mean survival time, dose: 1.56 mg/kg/injection, schedule: Q01DX009 (ip), vehicle: other); 105 % of control (endpoint: mean survival time, dose: 1.56 mg/kg/injection, schedule: Q04DX002 (ip), vehicle: other); 108 % of control (endpoint: mean survival time, dose: 1.56 mg/kg/injection, schedule: Q04DX003 (ip), vehicle: other). Also, the T/C is 95 % of control (endpoint: mean survival time, dose: 3.12 mg/kg/injection, schedule: Q01DX009 (ip), vehicle: other); 105 % of control (endpoint: mean survival time, dose: 3.12 mg/kg/injection, schedule: Q04DX002 (ip), vehicle: other); 102 % of control (endpoint: mean survival time, dose: 3.12 mg/kg/injection, schedule: Q04DX003 (ip), vehicle: other); 107 % of control (endpoint: mean survival time, dose: 6.25 mg/kg/injection, schedule: Q01DX009 (ip), vehicle: other); 109 % of control (endpoint: mean survival time, dose: 6.25 mg/kg/injection, schedule: Q04DX002 (ip), vehicle: other); 105 % of control (endpoint: mean survival time, dose: 6.25 mg/kg/injection, schedule: Q04DX003 (ip), vehicle: other). The T/C (endpoint: mean survival time, dose: 12.5 mg/kg/injection, schedule: Q01DX001 (ip), vehicle: other) is 107 % of control.

As for `CCCCCCCCCCCCCCCC(=O)Nc1ccn(C2OC(CO)C(O)C2O)c(=O)n1` (centres undefined), the T/C was 213 % of control and 268 % of control (endpoint: mean survival time, dose: 12.5 mg/kg/injection, schedule: Q01DX009 (ip), vehicle: saline); 189 % of control and 270 % of control (endpoint: mean survival time, dose: 25.0 mg/kg/injection, schedule: Q01DX009 (ip), vehicle: saline); 225 % of control and 307 % of control (endpoint: mean survival time, dose: 50.0 mg/kg/injection, schedule: Q01DX009 (ip), vehicle: saline); 331 % of control under setting [4]; 344 % of control and 345 % of control under setting [5]; 95 % of control under setting [9]. Besides, the T/C under setting [10] was 198 % of control.

Regarding `NC(=S)c1cn(C2OC(CO)C(O)C2O)c2ncnc(N)c12` (centres undefined), the T/C runs as follows: (endpoint: median survival time, dose: 2.5 mg/kg/injection, schedule: Q01DX009 (ip), vehicle: suspension in saline) 158 % of control; (endpoint: median survival time, dose: 5.0 mg/kg/injection, schedule: Q01DX009 (ip), vehicle: suspension in saline) 175 % of control; (endpoint: median survival time, dose: 10.0 mg/kg/injection, schedule: Q01DX009 (ip), vehicle: suspension in saline) 91 % of control.

`CC1CN(c2ccccc2)NC1=O` (centres undefined): the T/C is 104 % of control (endpoint: mean survival time, dose: 100.0 mg/kg/injection, schedule: Q01DX009 (ip), vehicle: saline); 105 % of control under setting [9]; 102 % of control (endpoint: mean survival time, dose: 400.0 mg/kg/injection, schedule: Q01DX009 (ip), vehicle: saline).

In the case of `CCCCCCCC/C=C\CCCCCCCC(=O)OCCCCCC`, the T/C reads like this: under setting [6], 91 % of control; under setting [7], 102 % of control; (endpoint: mean survival time, dose: 400.0 mg/kg/injection, schedule: Q04DX002 (ip), vehicle: saline with Tween-80) 95 % of control.

On to `Cc1ccc(Cl)c(I)c1`, for which the T/C is 101 % of control (endpoint: mean survival time, dose: 100.0 mg/kg/injection, schedule: Q01DX001 (ip), vehicle: Klucel (hydroxypropylcellulose) (HPC)); 103 % of control (endpoint: mean survival time, dose: 200.0 mg/kg/injection, schedule: Q01DX001 (ip), vehicle: Klucel (hydroxypropylcellulose) (HPC)); 106 % of control (endpoint: mean survival time, dose: 400.0 mg/kg/injection, schedule: Q01DX001 (ip), vehicle: Klucel (hydroxypropylcellulose) (HPC)).

Regarding `C1CC[N-]CC1.[Cl][Pt+2][Cl].[NH-]C1CC1`, the T/C is, setting by setting: (endpoint: mean survival time, dose: 3.0 mg/kg/injection, schedule: Q04DX003 (ip), vehicle: water) 100 % of control; (endpoint: mean survival time, dose: 6.25 mg/kg/injection, schedule: Q01DX009 (ip), vehicle: distilled water + Tween-80) 120 % of control; (endpoint: mean survival time, dose: 6.25 mg/kg/injection, schedule: Q01DX009 (ip), vehicle: water) 118 % of control; under setting [11], 119 % of control; (endpoint: mean survival time, dose: 25.0 mg/kg/injection, schedule: Q04DX003 (ip), vehicle: distilled water + Tween-80) 90 % of control; (endpoint: mean survival time, dose: 25.0 mg/kg/injection, schedule: Q04DX003 (ip), vehicle: water) 90 % of control.

`O=S(CCCCO)c1ccccc1` (centres undefined): the T/C is 101 % of control under setting [4], 104 % of control under setting [5] and 96 % of control under setting [10].

As for `Cc1c[n+]([O-])ccc1Br`, the T/C reads like this: under setting [11], 94 % of control; (endpoint: mean survival time, dose: 50.0 mg/kg/injection, schedule: Q01DX009 (ip), vehicle: water) 100 % of control; (endpoint: mean survival time, dose: 100.0 mg/kg/injection, schedule: Q01DX009 (ip), vehicle: water) 88 % of control.

In the case of `O=C(O)/C=C/C(=O)Nc1cc2c(cc1Br)-c1ccccc1C2O` (centres undefined), the T/C is 100 % of control under setting [8]; 102 % of control (endpoint: mean survival time, dose: 200.0 mg/kg/injection, schedule: Q04DX003 (ip), vehicle: saline with Tween-80); 94 % of control (endpoint: mean survival time, dose: 400.0 mg/kg/injection, schedule: Q04DX003 (ip), vehicle: saline with Tween-80).

Source of the values: PubChem BioAssay AID256 (DTP/NCI, 2004).
